The values below come from patent US7030257B2, “Metallocenes and processes for their preparation” (Agency for Science, Technology and Research, priority 2004, dated 2006).

The assay concerns double-stranded DNA. In words: Competition experiment against ethidium bromide (EB) for binding to EB-saturated double-stranded DNA, gel electrophoresis fluorescence readout.

Text: A competition experiment was designed to obtain an estimate of the nucleic acid intercalating property of the compound of the invention. The basis of this methodology involves the use of two intercalators, one fluorescent and one non-fluorescent. The fluorescent intercalator first saturates the double-stranded DNA. Then a second intercalator, in this case VFcTMEDA, is introduced into the system with gradual increasing concentration. […] For the competition experiment, the changes in fluorescent intensity were monitored during the displacement of DNA-bound fluorescent molecules by VFcTMEDA through an increasing concentration of the VFcTMEDA molecules in the system. A well-known threading intercalator, ethidium bromide (EB), was chosen as our fluorescent indicator.
Subsequently, VFcTMEDA was studied with respect to its ability to compete against EB for binding to DNA using the same approach. Different amounts of VFcTMEDA were mixed with the EB saturated double-stranded DNA to examine the bind ability. […] Lanes 1 to 5 correspond to different ratios of VFcTMEDA/EB.

Take “vinylferrocene tetramethylethylenediamine [VFcTMEDA]”: the “enhancement of binding constant over EB” value (Kd of VFcTMEDA relative to EB) is listed as around 26 fold. The “DNA-bound EB replaced” value (VFcTMEDA/EB molecular ratio 1/5 (second lane)) is listed as “more than 50%”.
